Data on 18 molecules can be found in US5073565A, “Tetrazole ureas and thioureas and their use as ACAT inhibitors” (Warner-Lambert Company, priority 1990, dated 1991).

Assay [1] has as its target T1, acyl-CoA: cholesterol acyltransferase (ACAT) (Oryctolagus cuniculus, UniProt G1SFD9).
T1 construct: tissue preparation containing rabbit intestinal microsomes; from tissue; host or cells: rabbit intestinal microsomes
T1 sequence (G1SFD9 1-524): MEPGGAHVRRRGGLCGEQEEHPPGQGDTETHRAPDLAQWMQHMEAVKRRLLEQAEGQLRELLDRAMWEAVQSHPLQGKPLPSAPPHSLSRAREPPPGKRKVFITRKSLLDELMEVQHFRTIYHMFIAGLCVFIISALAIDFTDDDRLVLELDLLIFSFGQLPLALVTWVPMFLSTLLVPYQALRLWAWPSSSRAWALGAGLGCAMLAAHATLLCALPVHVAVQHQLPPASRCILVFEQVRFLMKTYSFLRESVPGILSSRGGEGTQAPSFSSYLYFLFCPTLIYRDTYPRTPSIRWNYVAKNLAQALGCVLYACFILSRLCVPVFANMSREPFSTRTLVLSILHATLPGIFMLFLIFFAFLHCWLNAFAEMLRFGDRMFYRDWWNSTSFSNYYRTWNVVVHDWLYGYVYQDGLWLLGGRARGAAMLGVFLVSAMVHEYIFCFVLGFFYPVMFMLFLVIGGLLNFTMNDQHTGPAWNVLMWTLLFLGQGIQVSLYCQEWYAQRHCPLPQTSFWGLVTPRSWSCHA
Description: in vitro ACAT inhibition (radiolabeled cholesterol oleate formed from radiolabeled oleic acid, rabbit intestinal microsomes). It is filed as biochemical. Particulars: read-out: IC50 (concentration of test compound required to inhibit the activity of the enzyme by 50%). On the procedure:
The ability of representative compounds of the present invention to inhibit ACAT was measured using an in vitro test more fully described in Field, F. J. and Salone, R. G., Biochemica et Biophysica, 712:557-570 (1982). The test assesses the ability of a test compound to inhibit the acylation of cholesterol by oleic acid by measuring the amount of radiolabeled cholesterol oleate formed from radiolabeled oleic acid in a tissue preparation containing rabbit intestinal microsomes.
The data appear in Table I where they are expressed in IC50 values; i.e., the concentration of test compound required to inhibit the activity of the enzyme by 50%.

The nature of assay [2]: in vivo screen designated APCC (total cholesterol in rats on PCC diet). To be noted: rat, 50 (mg/dl), N/C means no change. Further details: species or system male Sprague-Dawley rats. An excerpt: In one in vivo screen designated APCC, male Sprague-Dawley rats (200 to 225 g) were randomly divided into treatment groups and dosed at 4 PM with either vehicle (CMC/Tween) or suspensions of compounds in vehicle. The normal chow diet was then replaced with the PCC diet (5.5% peanut oil, 1.5% cholesterol, and 0.5% cholic acid). The rats consumed this diet a libitum during the night and were sacrificed at 8 AM to obtain blood samples for cholesterol analysis using standard procedures. Statistical differences between mean cholesterol values for the same vehicle were determined using analysis of variance followed by Fisher's least significant test. The results of this trail for representative compounds of the present invention appear in Table II wherein percent change means the difference in total cholesterol between control, and the drug-treated animals, and the (mg/dL) is the milligrams of compound per deciliter of vehicle administered. The milligrams are reflected parenthetically.

The conditions of assay [3]: J. Medicinal Chemistry 22, 28-32 (1979); cited from earlier work.

With `CC(C)c1cccc(C(C)C)c1NC(=O)Nc1nnn(CCCCCCCCCCCCOC2CCCCO2)n1` (stereo not shown) [1 (c)], the IC50 in assay [1] turned out to be 36 nM.
For the molecule `CC(C)c1cccc(C(C)C)c1NC(=O)Nc1nnn(CCCCCCCCCCCCO)n1` [1 (d), N-[2,6-Bis(1-methylethyl)phenyl]-N'-[2-(12-hydroxy-dodecyl)-2H-tetrazol-5-yl] urea], the IC50 in assay [1] is 21 nM.
As for `CCCCCCCCCCCCCCn1nnc(NC(=O)Nc2c(C(C)C)cccc2C(C)C)n1` [Example 3, N-[2,6-bis(1-methylethyl)phenyl]-N'-(2-tetradecyl-2H-tetrazol-5-yl)urea], in assay [1], the IC50 was 12 nM.
Take `CCCCCCCCCCCCCn1nnc(NC(=O)Nc2c(C(C)C)cccc2C(C)C)n1` [Example 4, N-[2,6-Bis(1-methylethyl)phenyl]-N'-(2-tridecyl-2H-tetrazol-5-yl)urea]: in assay [1], the IC50 stood at 9 nM.
With `CCCCCCCCCCCCn1nnc(NC(=O)Nc2c(C(C)C)cccc2C(C)C)n1` [Example 5, N-[2,6-Bis(1-methylethyl)-phenyl]-N'-(2-dodecyl-2H-tetrazol-5-yl)urea], the IC50 in assay [1] amounted to 14 nM.
The same measure, in the same setting: with `CCCCCCCCCCCCCCCCn1nnc(NC(=O)Nc2c(C(C)C)cccc2C(C)C)n1` [Example 6, N-[2,6-Bis(1-methylethyl)-phenyl]-N'-(2-hexadecyl-2H-tetrazol-5-yl)urea] the figure was 57 nM.
As for `CC(C)c1cccc(C(C)C)c1NC(=O)Nc1nnn(CCCCCCCCCCOC2CCCCO2)n1` (stereo not shown) [Example 7], the IC50 in assay [1] came out at 12 nM.
With `CCCCCCCCCCCn1nnc(NC(=O)Nc2c(C(C)C)cccc2C(C)C)n1` [Example 10, N-[2,6-Bis(1-methylethyl)-phenyl]-N'-(2-undecyl-2H-tetrazol-5-yl)urea], the IC50 in assay [1] is 9 nM.
Take `CCCCn1nnc(NC(=O)Nc2c(C(C)C)cccc2C(C)C)n1` [Example 11, N-[2,6-Bis(1-methylethyl)-phenyl]-N'-(2-butyl-2H-tetrazol-5-yl)urea]: the IC50 in assay [1] is 92 nM.
As for `CC(C)c1cccc(C(C)C)c1NC(=O)Nc1nnn(CCCCCCCCCCO)n1` [Example 15, N-[2,6-Bis(1-methylethyl)phenyl]-N'-[2-(10-hydroxy-decyl)-2H-tetrazol-5-yl]urea], in assay [1], the IC50 is 72 nM.
On to `CC(C)c1cccc(C(C)C)c1NC(=O)Nc1nnn(Cc2ccccc2)n1` [Example 17, N-[2,6-Bis(1-methylethyl)phenyl]-N'-(2-phenylmethyl-2H-tetrazol-5-yl)urea], for which the IC50 in assay [1] amounted to 370 nM. In assay [2], the “% Change (difference in total cholesterol between control and drug-treated animals)” value is recorded as “N/C”.
With `CC(C)c1cccc(C(C)C)c1NC(=O)Nc1nnnn1Cc1ccccc1` [Example 19, N-[2,6-Bis(1-methylethyl)phenyl]-N'-(1-phenylmethyl-1H-tetrazol-5-yl)urea], the IC50 in assay [1] stood at 300 nM.
On the same count and under the same terms, with `CCCCCCCCCCn1nnnc1NC(=O)Nc1c(C(C)C)cccc1C(C)C` [Example 20] the figure was 180 nM; with `CC(C)c1cccc(C(C)C)c1NC(=O)Nc1nnnn1CCc1ccccc1` [Example 21], 327 nM.
`CCCCCCCCn1nnc(NC(=O)Nc2c(C(C)C)cccc2C(C)C)n1` [Example 22, N-[2,6-Bis(1-methylethyl)phenyl]-N'-(2-octyl-2H-tetrazol-5-yl)urea]: the IC50 in assay [1] is 59 nM.
Regarding `CCCCCCn1nnc(NC(=O)Nc2c(C(C)C)cccc2C(C)C)n1` [Example 23, N-[2,6-Bis(1-methylethyl)phenyl]-N'-(2-hexyl-2H-tetrazol-5-yl)urea], in assay [1], the IC50 was found to be 73 nM.
Take `CCCCCCCCCCn1nnc(NC(=O)Nc2c(C(C)C)cccc2C(C)C)n1` [Example 24, N-[2,6-Bis(1-methylethyl)phenyl]-N'-(2-decyl-2H-tetrazol-5-yl)urea]: in assay [1], the IC50 is 14 nM.
In the case of `CCOC(=O)c1ccc(NC(=O)Nc2nnn[nH]2)cc1` [N-(4-ethoxycarbonylphenyl)-N'-tetrazol-5-yl-urea], the antileukemic data entry in assay [3] is “inactive”.
